Test results published in article PMC6403019, “Nanoformulated Antiretroviral Therapy Attenuates Brain Metabolic Oxidative Stress” (Molecular Neurobiology, 2018).

How the values were obtained:
[1] = Plasma concentration after intramuscular injection of free DTG; assay type: in vivo, mice; details: single free DTG injection, 45 mg/kg
[2] = system: brain metabolome; experiment: Brain region-specific global metabolomics (LC-MS) after DTG injections; assay type: in vivo, mice (Balb/cJ); details: five brain regions, Fig. 4
Method: Brain tissue subregions were extracted as previously described. Briefly, 0.6 mL of cold methanol:H2O (4:1, v/v) were added per 10 mg tissue (solvent volume was adjusted accordingly to tissue weight). Homogenization was performed with glass beads in a homogenizer and sonicated in an ice bath for 10 min. The mixtures were then transferred to 1.5-mL Eppendorf vials and rinsed with additional 200 μL extraction solvent. To precipitate proteins, the samples were incubated for 1 h at − 20 °C, followed by a 15-min centrifugation at 13,000 rpm at 4 °C. The resulting supernatant was evaporated to dryness in a vacuum concentrator. The dry extracts were then reconstituted in acetonitrile:H2O (1:1, v/v), normalized by tissue weight, sonicated for 10 min, and centrifuged for 15 min at 13000 rpm and 4 °C to remove insoluble debris. The supernatants were transferred to HPLC vials and stored at − 80 °C prior to LC-MS analysis.
The extracts were analyzed on a 6550 iFunnel QTOF mass spectrometer coupled with a 1290 UPLC system (Agilent Technologies, Santa Clara, CA). For global metabolomics, a Luna Aminopropyl, 3 μm, 150 mm × 2.0 mm I.D. HILIC column (Phenomenex, Torrance, CA) was used. […]
LC-MS data were converted to mzXML files using Masshunter Acquisition Software (Agilent Masshunter 6.0B). […] The relative quantification of metabolite features was based on extracted ion chromatogram areas. […]

[3] = system: mouse embryonic neuron cells; experiment: ROS formation (DCFDA) in neurons; assay type: cell-based; details: administered at 100 and 500 μM
Method: (§1) ROS were measured in neuron and MDM cells with the probe DCFDA (dichlorofluorescin diacetate, abcam, Cambridge, MA). Cells were seeded on black, clear-bottomed 96-well plates. After cells were pre-cultured with different treatments, the media were removed and the cells were washed with 1× buffer (supplied with the kit). Cells were incubated for 45 min in 1× buffer containing 25 μM DCFDA at 37 °C. DCF production was measured by fluorescence spectroscopy with excitation wavelength at 485 nm and emission wavelength at 535 nm. In this study, the cells were treated with increasing concentrations of free DTG, nano-DTG, and various vehicle, positive, and negative controls to compare ROS generation and lactate dehydrogenase (LDH)-based cytotoxicity generated by such treatments. […] TBHP (tert-butyl hydroperoxide; 10 μM) and PBS were used as the positive and negative controls, respectively. The vehicle control for nanoformulated DTG was composed of poloxamer micelles without the drug. […] Specifically, cells (both MDM and neurons) were treated for 2 h with various vehicle or drug concentrations. Then, cells were washed and new media was added, and after 24-h culture, cells were challenged with TBHP for 2 h, followed by fluorescence-based ROS measurements.

[4] = system: human MDM; experiment: ROS formation (DCFDA) in MDM; assay type: cell-based; details: 100 μM
Method: as §1

[5] = system: mouse embryonic neuron cells; experiment: ROS levels after TBHP challenge in neurons; assay type: cell-based; details: 100 μM drug, then 10 μM TBHP; normalized with TBHP-positive control
Method: as §1

[6] = system: human MDM; experiment: ROS levels after TBHP challenge in MDM; assay type: cell-based; details: 10 to 100 μM drug, then 10 μM TBHP
Method: as §1

[7] = system: mouse embryonic neuron cells; experiment: Cellular uptake of DTG in neurons (LC-MS/MS MRM); assay type: in vitro ADME; details: treated with 100 μM
Excerpt: Cycle time was 150 ms for each transition.

[8] = system: neuron and MDM cells; experiment: LDH-based cytotoxicity; assay type: cell-based; details: 500 μM in the dosing medium
[9] = set-up: method as in PMID 21716073, PMID 23824675; details: HIV-infected adults, ten doses of monotherapy with 50 mg once daily DTG tablets; cited from earlier work

In the case of `C[C@@H]1CCO[C@H]2Cn3cc(C(=O)NCc4ccc(F)cc4F)c(=O)c(O)c3C(=O)N12` [free DTG, dolutegravir], the plasma concentration [1] is reported as “up to 11.29 μg/mL”, the “changes of oxidative stress metabolites (ascorbic acid, threonate, GSH, GSSG) vs controls” value [2] is reported as “statistically significant (p value < 0.05) with the exception of ascorbic acid levels observed in the H” and the “ROS fold change vs vehicle control, neurons” value [3] is reported as “up to 1.5 times of control”. The “ROS fold change vs vehicle control, MDM” value [4] was 0.8 times, the “ROS fold change after TBHP challenge, neurons” value [5] was 4 and the “ROS response to TBHP challenge, MDM” value [6] was “induced ROS formation in a dose-response at higher concentrations (60 to 100 μM)”. The “DTG concentration in neurons” value [7] was 168 ng/10^6 cells, the “cytotoxicity (LDH-based)” value [8] was “did not show significant cytotoxicity” and the “steady-state plasma concentration (Cmax)” value [9] was 3340 ng/mL.
